The source of these data is patent publication US20190000789A1, “COMPOSITION AND METHOD FOR TREATING INFECTIONS CAUSED BY VANCOMYCIN-RESISTANT INFECTIOUS AGENTS IN A SUBJECT” (priority 2015, published 2019).

In test [1] the test system is clinical isolates of vanA-positive Enterococcus faecium. Description: MIC of vancomycin by serial dilution, isolates not named individually. It is filed as cell-based. The following applies: for MIC: Enterococcus faecium. How it is done: Having established the important role of D-Ala in enhancing the efficacy of vancomycin against vancomycin-resistant S. coelicolor cells, next, its effect on the resistance of clinical isolates of Enterococcus faecium, which were vanA-positive strains, was assessed. MIC values were calculated by testing a serial dilution of vancomycin in the presence or absence of D-Ala in triplicate (Table 3).
The MIC was determined by measurement of the OD600 or by visual assessment, following the Clinical Laboratory and Standards Institute (CLSI) guidelines. […] This value compares to intermediate instead of total resistance. The strains were serially diluted in a 96-well plate and growth was assayed at OD600. The steps down refer to CSLI guidelines for clinical MIC measurements.
Five vanA-positive Enterococcus faecium strains were collected in 2011 and 2014 from patients in the Erasmus University Medical Centre, Rotterdam, The Netherlands. Presence of the vanA gene was confirmed by real-time PCR with the LIGHTCYCLER® 480 instrument (Roche Diagnostics, Almere, The Netherlands) with the primers vanA F1 and vanA R1, and the vanA probe. The resistance profile of these isolates was determined as MIC values using the VITEK II (BioMerieux) system AST-P586. To determine the MIC of vancomycin against E. faecium, cells were grown overnight on Trypticase Soy Agar (TSA) blood agar plates (Becton Dickinson, Breda, The Netherlands) and suspended in 0.9% NaCl until OD600 0.5 (±0.05). Of this suspension, 10 μl was dispensed into wells of sterile flat-bottom 96-well polystyrene tissue culture plates (Greiner Bio-One, Alphen aan Den Rijn, The Netherlands) containing serial dilutions of vancomycin in 190 μl of a 1:1 mixture of Fetal Bovine Serum (FBS) (Gibco, Bleiswijk, The Netherlands) and Iscove's Modified Dulbecco's Medium (IMDM) (without phenolred, Gibco, Bleiswijk, The Netherlands), and in the presence or absence of 50 mM D-alanine (Alfa Aesar, Ward Hill, Mass., USA). Plates were incubated for 18-24 hours at 37° C. and MIC values determined visually following the CLSI guidelines, or by spectrophotometer at 600 nm.

Test [2] relates to S. coelicolor LAG2 ΔvanX (LAG4). Description: MIC of vancomycin on MM agar plates with added D-Ala. The test is classed as cell-based. The following applies: Streptomyces coelicolor. An excerpt: VanX effectively eradicates the D-Ala-D-Ala dipeptide, thereby counteracting the accumulation of wild-type precursors and supporting vancomycin resistance (Lessard and Walsh, 1999; Tan et al., 2002). Therefore, a vanX null mutant was created using a similar strategy as for ddl, replacing the coding region of vanX by the apramycin resistance cassette aacC4. The mutant was created in both the parental strain S. coelicolor M145 and in its ddl suppressor mutant LAG2, generating LAG3 (M145 ΔvanX) and LAG4 (M145 Δddl ΔvanX vanS::IS466A), respectively.
LAG4 produced 20% wt precursors prior to the addition of D-Ala.
Escherichia coli strains JM109 (Sambrook et al., 1989) and ET12567 (Kieser et al., 2000) were used for routine cloning procedures and for extracting non-methylated DNA, respectively. Cells of E. coli were grown in Luria-Berani broth (LB) at 37° C. Streptomyces coelicolor A3(2) M145 was the parent of all mutants described in this work. All media and routine Streptomyces techniques were carried out as described (Kieser et al., 2000). SFM (soy flour mannitol) agar plates were used for propagating S. coelicolor strains and to prepare spore suspensions. For liquid-grown cultures, S. coelicolor mycelia were grown in normal minimal media with phosphate (NMMP) supplemented with 1% (w/v) mannitol as the sole carbon source. The MIC of vancomycin against S. coelicolor M145 and its mutant derivatives were determined by growth on minimal media (MM) agar plates supplemented with 1% mannitol as the sole carbon source, and 0, 2, 4, 8, 16, 32, 64, 128, 256 or 512 μg/ml vancomycin, in combination with 0, 1, 5, 10 or 50 mM of D-Ala or L-Ala. The vanX deletion mutants have been tested with 1, 5, 10, 50 and 100 μM D-Ala and L-Ala.

Like-named read-outs stand apart in the source and are kept apart here.

Broadly, the MIC is the lowest concentration found to suppress growth. In the case of `CN[C@H](CC(C)C)C(=O)N[C@H]1C(=O)N[C@@H](CC(N)=O)C(=O)N[C@H]2C(=O)N[C@H]3C(=O)N[C@H](C(=O)N[C@H](C(=O)O)c4cc(O)cc(O)c4-c4cc3ccc4O)[C@H](O)c3ccc(c(Cl)c3)Oc3cc2cc(c3O[C@@H]2O[C@H](CO)[C@@H](O)[C@H](O)[C@H]2O[C@H]2C[C@](C)(N)[C@H](O)[C@H](C)O2)Oc2ccc(cc2Cl)[C@H]1O` [vancomycin], the MIC in test [1] (worst cases, 50 mM D-Ala) worked out at 256 µg/mL; in test [1] (worst cases, without D-Ala) it was 4100 µg/mL; in test [2] (read-out: MIC of vancomycin, LAG2 ΔvanX, 0 μM D-Ala) it was 64 µg/mL; in test [2] (read-out: MIC of vancomycin, LAG2 ΔvanX, 10 μM D-Ala), 32 µg/mL; in test [2] (read-out: MIC of vancomycin, LAG2 ΔvanX, 50 μM D-Ala), 8 µg/mL; in test [2] (read-out: MIC of vancomycin, LAG2 ΔvanX, 100 μM D-Ala) it was 2 µg/mL. Further, in test [1] (all clinical isolates, 50 mM D-Ala), the “reduction of MIC of vancomycin in dilution steps” value was 4-7 dilution steps. Besides, the MIC of vancomycin in test [1] (worst cases, 50 mM D-Ala) stood at 128 µg/mL.
